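96-well plates; 48 h exposure; 5 concentrations. Endpoints by linear interpolation between flanking doses. Not reached: highest tested concentration assigned. At the GI50, growth is halved. TGI is the concentration that stops growth completely.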
Legend:
Test in all cases: growth of human tumour cells (NCI), 48 h
786-0 renal = test system: 786-0 renal
A498 renal = test system: A498 renal
A549 NSCLC = test system: A549 NSCLC
ACHN renal = test system: ACHN renal
CAKI-1 renal = test system: CAKI-1 renal
CCRF-CEM leukemia = test system: CCRF-CEM leukemia
COLO 205 colon = test system: COLO 205 colon
DU-145 prostate = test system: DU-145 prostate
HCC-2998 colon = test system: HCC-2998 colon
HCT-116 colon = test system: HCT-116 colon
HCT-15 colon = test system: HCT-15 colon
HOP-62 NSCLC = test system: HOP-62 NSCLC
HOP-92 NSCLC = test system: HOP-92 NSCLC
HS 578T breast = test system: HS 578T breast
IGROV1 ovarian = test system: IGROV1 ovarian
K-562 leukemia = test system: K-562 leukemia
KM12 colon = test system: KM12 colon
LOX IMVI melanoma = test system: LOX IMVI melanoma
M14 melanoma = test system: M14 melanoma
MCF7 breast = test system: MCF7 breast
MDA-MB-435 = test system: MDA-MB-435
MOLT-4 leukemia = test system: MOLT-4 leukemia
NCI-H226 lung = test system: NCI-H226 lung
NCI-H23 lung = test system: NCI-H23 lung
NCI-H460 lung = test system: NCI-H460 lung
NCI-H522 lung = test system: NCI-H522 lung
NCI/ADR-RES ovarian = test system: NCI/ADR-RES ovarian
OVCAR-3 ovarian = test system: OVCAR-3 ovarian
OVCAR-4 ovarian = test system: OVCAR-4 ovarian
OVCAR-5 ovarian = test system: OVCAR-5 ovarian
OVCAR-8 ovarian = test system: OVCAR-8 ovarian
PC-3 prostate = test system: PC-3 prostate
RPMI-8226 leukemia = test system: RPMI-8226 leukemia
RXF 393 renal = test system: RXF 393 renal
SF-268 CNS = test system: SF-268 CNS
SF-295 CNS = test system: SF-295 CNS
SK-MEL-2 melanoma = test system: SK-MEL-2 melanoma
SK-MEL-28 melanoma = test system: SK-MEL-28 melanoma
SK-MEL-5 melanoma = test system: SK-MEL-5 melanoma
SK-OV-3 ovarian = test system: SK-OV-3 ovarian
SN12C renal = test system: SN12C renal
SNB-19 CNS = test system: SNB-19 CNS
SR leukemia = test system: SR leukemia
T-47D breast = test system: T-47D breast
TK-10 renal = test system: TK-10 renal
U251 CNS = test system: U251 CNS
UACC-62 melanoma = test system: UACC-62 melanoma
UO-31 renal = test system: UO-31 renal

Q: `CC(C)(C)C(=O)OCCNc1nc(-c2ccccc2)nc2ccccc12` was tested. Which GI50 (786-0 renal) did it give?
A: 3.4 µM

Q: And the TGI (786-0 renal)?
A: 19 µM

Q: And the GI50 (A498 renal)?
A: 15.1 µM

Q: And the TGI (A498 renal)?
A: 29 µM

Q: What about the GI50 (A549 NSCLC) of the same compound?
A: 16.8 µM

Q: What about the TGI (A549 NSCLC) of the same compound?
A: 39.5 µM

Q: What about the GI50 (ACHN renal) of the same compound?
A: 13.6 µM

Q: And the TGI (ACHN renal)?
A: 26.5 µM

Q: What about the GI50 (CAKI-1 renal) of the same compound?
A: 11.6 µM

Q: What about the TGI (CAKI-1 renal) of the same compound?
A: 23.8 µM

Q: And the GI50 (CCRF-CEM leukemia)?
A: 12.7 µM

Q: What about the TGI (CCRF-CEM leukemia) of the same compound?
A: 35 µM

Q: And the GI50 (COLO 205 colon)?
A: 16.2 µM

Q: And the TGI (COLO 205 colon)?
A: 37.9 µM

Q: What about the GI50 (DU-145 prostate) of the same compound?
A: 13.3 µM

Q: What about the TGI (DU-145 prostate) of the same compound?
A: 26.1 µM

Q: What about the GI50 (HCC-2998 colon) of the same compound?
A: 16.4 µM

Q: What about the TGI (HCC-2998 colon) of the same compound?
A: 29.9 µM

Q: What about the GI50 (HCT-116 colon) of the same compound?
A: 11.5 µM

Q: And the TGI (HCT-116 colon)?
A: 23.7 µM

Q: And the GI50 (HCT-15 colon)?
A: 12.3 µM

Q: And the TGI (HCT-15 colon)?
A: 24.8 µM

Q: What about the GI50 (HOP-62 NSCLC) of the same compound?
A: 13 µM

Q: What about the TGI (HOP-62 NSCLC) of the same compound?
A: 25.6 µM

Q: And the GI50 (HOP-92 NSCLC)?
A: 12.6 µM

Q: What about the TGI (HOP-92 NSCLC) of the same compound?
A: 29 µM

Q: And the GI50 (HS 578T breast)?
A: 11.5 µM

Q: What about the TGI (HS 578T breast) of the same compound?
A: 25.6 µM

Q: What about the GI50 (IGROV1 ovarian) of the same compound?
A: 29.5 µM

Q: What about the TGI (IGROV1 ovarian) of the same compound?
A: > 100 µM

Q: And the GI50 (K-562 leukemia)?
A: 2110 nM

Q: And the TGI (K-562 leukemia)?
A: 10.9 µM

Q: And the GI50 (KM12 colon)?
A: 3.94 µM

Q: And the TGI (KM12 colon)?
A: 17.4 µM

Q: What about the GI50 (LOX IMVI melanoma) of the same compound?
A: 10.3 µM

Q: What about the TGI (LOX IMVI melanoma) of the same compound?
A: 22 µM

Q: And the GI50 (M14 melanoma)?
A: 7.57 µM

Q: And the TGI (M14 melanoma)?
A: 20.5 µM

Q: What about the GI50 (MCF7 breast) of the same compound?
A: 17.3 µM

Q: What about the TGI (MCF7 breast) of the same compound?
A: 43.2 µM

Q: And the GI50 (MDA-MB-435)?
A: 15.7 µM

Q: What about the TGI (MDA-MB-435) of the same compound?
A: 29.1 µM

Q: And the GI50 (MOLT-4 leukemia)?
A: 2100 nM

Q: What about the TGI (MOLT-4 leukemia) of the same compound?
A: 19 µM

Q: What about the GI50 (NCI-H226 lung) of the same compound?
A: 20.2 µM

Q: What about the TGI (NCI-H226 lung) of the same compound?
A: 67.1 µM

Q: And the GI50 (NCI-H23 lung)?
A: 12.1 µM

Q: What about the TGI (NCI-H23 lung) of the same compound?
A: 24.5 µM

Q: What about the GI50 (NCI-H460 lung) of the same compound?
A: 16.6 µM

Q: And the TGI (NCI-H460 lung)?
A: 34.7 µM

Q: And the GI50 (NCI-H522 lung)?
A: 27.5 µM

Q: What about the TGI (NCI-H522 lung) of the same compound?
A: > 100 µM

Q: And the GI50 (NCI/ADR-RES ovarian)?
A: 16.6 µM

Q: And the TGI (NCI/ADR-RES ovarian)?
A: 51.6 µM

Q: What about the GI50 (OVCAR-3 ovarian) of the same compound?
A: 3.68 µM

Q: What about the TGI (OVCAR-3 ovarian) of the same compound?
A: 19.3 µM

Q: And the GI50 (OVCAR-4 ovarian)?
A: 23.3 µM

Q: And the TGI (OVCAR-4 ovarian)?
A: 73.1 µM

Q: What about the GI50 (OVCAR-5 ovarian) of the same compound?
A: 14.6 µM

Q: What about the TGI (OVCAR-5 ovarian) of the same compound?
A: 27.8 µM

Q: And the GI50 (OVCAR-8 ovarian)?
A: 13.5 µM

Q: What about the TGI (OVCAR-8 ovarian) of the same compound?
A: 42.8 µM

Q: And the GI50 (PC-3 prostate)?
A: 15.6 µM

Q: What about the TGI (PC-3 prostate) of the same compound?
A: 32.6 µM

Q: What about the GI50 (RPMI-8226 leukemia) of the same compound?
A: 3.7 µM

Q: And the TGI (RPMI-8226 leukemia)?
A: 25.7 µM

Q: And the GI50 (RXF 393 renal)?
A: 15.4 µM

Q: What about the TGI (RXF 393 renal) of the same compound?
A: 32 µM

Q: What about the GI50 (SF-268 CNS) of the same compound?
A: 16.8 µM

Q: And the TGI (SF-268 CNS)?
A: 35.7 µM

Q: What about the GI50 (SF-295 CNS) of the same compound?
A: 10.7 µM

Q: What about the TGI (SF-295 CNS) of the same compound?
A: 22.5 µM

Q: And the GI50 (SK-MEL-2 melanoma)?
A: 31.1 µM

Q: What about the TGI (SK-MEL-2 melanoma) of the same compound?
A: > 100 µM

Q: What about the GI50 (SK-MEL-28 melanoma) of the same compound?
A: 18.3 µM

Q: What about the TGI (SK-MEL-28 melanoma) of the same compound?
A: 40.1 µM

Q: And the GI50 (SK-MEL-5 melanoma)?
A: 15.5 µM

Q: And the TGI (SK-MEL-5 melanoma)?
A: 28.8 µM

Q: What about the GI50 (SK-OV-3 ovarian) of the same compound?
A: 17.7 µM

Q: What about the TGI (SK-OV-3 ovarian) of the same compound?
A: 38.9 µM

Q: What about the GI50 (SN12C renal) of the same compound?
A: 15.1 µM

Q: What about the TGI (SN12C renal) of the same compound?
A: 28.4 µM

Q: What about the GI50 (SNB-19 CNS) of the same compound?
A: 17.3 µM

Q: And the TGI (SNB-19 CNS)?
A: 34.9 µM

Q: And the GI50 (SR leukemia)?
A: 5.44 µM

Q: And the TGI (SR leukemia)?
A: 61.5 µM

Q: What about the GI50 (T-47D breast) of the same compound?
A: 22.5 µM

Q: What about the TGI (T-47D breast) of the same compound?
A: 93.3 µM

Q: And the GI50 (TK-10 renal)?
A: 11 µM

Q: What about the TGI (TK-10 renal) of the same compound?
A: 23 µM

Q: What about the GI50 (U251 CNS) of the same compound?
A: 11.5 µM

Q: What about the TGI (U251 CNS) of the same compound?
A: 23.6 µM

Q: And the GI50 (UACC-62 melanoma)?
A: 14.5 µM

Q: And the TGI (UACC-62 melanoma)?
A: 27.5 µM

Q: What about the GI50 (UO-31 renal) of the same compound?
A: 13.2 µM

Q: And the TGI (UO-31 renal)?
A: 36.1 µM

Reference: PubChem BioAssay (NCI)
